Laboratory results published in patent US20240059740A1, “CYCLIC PEPTIDES AND USES THEREOF” (PRE[…] INC., priority 2020, published 2024).
Residues, ends and D or L forms follow the SMILES beside them.

Assays:
Format in all cases: cell-based, human
Twist mRNA = assay: Real time RT-PCR, Twist mRNA expression
Description: (§1) The real-time reverse transcription polymerase chain reaction (RT-PCR) uses fluorescent reporter molecules to monitor the production of amplification products during each cycle of the PCR reaction. This combines the nucleic acid amplification and detection steps into one homogeneous assay and use of appropriate chemistries and data analysis eliminates the need for Southern blotting or DNA sequencing for amplicon identification. Its simplicity, specificity and sensitivity, together with its potential for high throughput and the ongoing introduction of new chemistries, more reliable instrumentation and improved protocols, has made real-time RT-PCR the benchmark technology for the detection and/or comparison of RNA levels.’
(§2) In order to detect and quantify the expression of specific genes at mRNA level, real-time reverse transcriptase polymerase chain reaction (Real time RT-PCR) was performed. Total RNA of samples was isolated and purified using the PureLink® RNA Mini Kit (Life technologies). The concentration of total RNA was detected by NanoDrop 2000 Spectrophotometer (Thermo Scientific). The total RNA (2000 ng) was reverse transcribed using the High-Capacity cDNA Reverse Transcription Kit (Applied Biosystems™).
(§3) The primers of target genes were TaqMan™ Gene Expression Assay for human PLAU (Hs01547054_m1), MMP-2 (Hs01548727_m1), MMP-9 (Hs00957562_m1), Snail-1 (Hs00195591_m1), Snail-2 (Hs00161904_m1), N-cadherin (Hs00983056_m1) and Twist (Hs01675818_s1). Relative quantification was done by reference to 18S ribosomal RNA (18S rRNA) and analysed using the comparative critical threshold (Ct) method
The mRNA expression of MMPs was measured using qRT-PCR. This was tested three independent times; the results are shown in Tables 9, 10 and 11 for U251, U87 cells and O81024 cells respectively. Results are reported as percent of the control cells (no treatment). Both MMP-2 and uPA were decreased in U251 by SEQ ID NO.1. […]

MMP-9 mRNA = assay: Real time RT-PCR, MMP-9 mRNA expression
Description: as §1, §2, §3
(§4) The mRNA expression of MMPs was measured using qRT-PCR. This was tested three independent times; the results are shown in Tables 9, 10 and 11 for U251, U87 cells and O81024 cells respectively. Results are reported as percent of the control cells (no treatment). Both MMP-2 and uPA were decreased in U251 by SEQ ID NO.1.

CDH-2 (N-cadherin) mRNA = assay: Real time RT-PCR, CDH-2 (N-cadherin) mRNA expression
Description: as §1, §2, §3, §4
Epithelial-mesenchymal transition (EMT) is the process by which epithelial cells acquire a migratory (metastatic) phenotype and so EMT is associated with cancer metastasis, cancer cell stemness, chemoresistance and immune resistance. Therefore, the determination of the mRNA expression of EMT markers is a valuable tool to evaluate invasion potential of cancer cells.
The ‘Snail’ superfamily is involved in cell differentiation and survival, two processes central in cancer research. Snail-1 has a pivotal role in the regulation of epithelial-mesenchymal transition (EMT) and Snail-1 expression is associated with poor prognosis in metastatic cancer, and tumours with elevated Snail-1 expression are harder to treat. […]

U87 cells = assay: MTT assay for cytotoxicity, U87; settings: 48 hours, % viability of control
Description: The MTT (3-[4.5-dimethylthiazol-2-yl]-2,5═diphenyl tetrazolium bromide) assay is based on a process undertaken by living cells, involving the conversion of MTT into formazan crystals. This assay is used routinely to measure the in vitro cytotoxic effects of drugs on cell lines or primary patient cells (Van Meerloo et al., 2011). The MTT assay measures mitochondrial activity, so in some instances where the peptide activates mitochondrial response, the results appear to increase the number of cells present i.e. >100% cell viability.
The aim of this experiment was to identify peptide concentrations that are active on living cells and cell viability was assessed.
The glioblastoma multiforme (GBM) cell lines used were U87 and U251 cells and patient derived cells grown as oncospheres (081024 cells). Human adherent GBM cell lines U87 and U251 were cultured in RPMI medium (Life Technologies Melbourne Australia) supplemented with 5% v/v FBS, 100 U/mL penicillin and 100 μg/mL streptomycin. 081024 cells were cultrured in NeuroCult™ NS-A Proliferation medium with 0.2% (v/v) heparin, 20 ng/mL EGF and 10 ng/mL FGF.
8×10^3 U87 and 7×10^3 U251 cells per well were seeded in 96 well plates in 200 μL serum-containing RPMI medium and incubated at 37° C. with 5% CO2 for 24 hours. After one wash with serum-free medium, 100 μL serum-free medium with different concentration of peptide SEQ ID NO:1 was added to each well. After 48 hours incubation, 10 μL of 0.5 mg/mL MTT was added and incubated for 2 hours at 37° C. Formazan crystals were dissolved by 200 μL/well dimethyl sulfoxide (DMSO) and shaking for 15 minutes. The UV absorbance was read with an iMark™ microplate absorbance reader at 595 nm (Bio-Rad Laboratories). Background absorbance was subtracted and results expressed as the % viability of control (untreated cells).

[1] = 081024 cells, baseline expression level = 1
[2] = U87 cells, baseline expression level = 1
[3] = U251 cells, relative to control (no treatment)

SMILES: CC(C)C[C@@H]1NC(=O)[C@H](C)NC(=O)[C@@H](NC(=O)[C@@H]2CCCN2C(=O)[C@@H](N)CC(C)C)CSSC(C)(C)CNC(=O)CC[C@@H](C(=O)N[C@@H](CCCNC(=N)N)C(N)=O)NC(=O)[C@H](CC(=O)O)NC(=O)[C@H](CC(N)=O)NC1=O [SEQ ID NO: 1, Leu-Pro-c(SSA*-Ala-Leu-Asn-Asp-Glu)-Arg-NH2] (HELM PEPTIDE1{L.P.C.A.L.N.D.E.R.[am]}|CHEM1{[CC(C)(CN[*:2])S[*:1]]}$PEPTIDE1,CHEM1,3:R3-1:R1|PEPTIDE1,CHEM1,8:R3-1:R2$$$V2.0; N-terminus assumed)
- mRNA expression, Twist (Twist mRNA; [1]): 0.94
- mRNA expression, Twist (Twist mRNA; [2]): 0.79
- mRNA expression, Twist (Twist mRNA; [3]): 0.91
- mRNA expression, MMP-9 (MMP-9 mRNA; [1]): 0.63
- mRNA expression, MMP-9 (MMP-9 mRNA; [2]): 0.66
- mRNA expression, MMP-9 (MMP-9 mRNA; [3]): 0.73
- mRNA expression, CDH-2 (CDH-2 (N-cadherin) mRNA; [1]): 0.91
- mRNA expression, CDH-2 (CDH-2 (N-cadherin) mRNA; [2]): 0.98
- mRNA expression, CDH-2 (CDH-2 (N-cadherin) mRNA; [3]): 0.82
- mRNA expression, CDH-2 (in words) (CDH-2 (N-cadherin) mRNA; cell line not specified): non-statistical decrease in expression
- Cell viability (U87 cells; 1 μM): 96.34%
- Cell viability (U87 cells; 5 μM): 102.4%
- Cell viability (U87 cells; 10 μM): 100.1%
- Cell viability (U87 cells; 50 μM): 98.71%
- Cell viability (U87 cells; 100 μM): 102.8%
- Cell viability (U87 cells; 500 μM): 96.94%
- Cell viability (U87 cells; 1 mM): 83.41%
